Experimental findings from article PMC12602806, “Itaconate reduces viral endocytosis by targeting Cys128 of the adaptor-related protein complex 1 gamma 1 subunit in the host, providing a novel target for antiviral drug development” (Molecular Biomedicine, 2025) are described below.

This assay has as its target T1, AP1G1 (Homo sapiens, UniProt O43747).
T1 construct: endogenous full-length AP1G1 in BEAS-2B cells or lysate; untagged
T1 sequence (O43747 1-822): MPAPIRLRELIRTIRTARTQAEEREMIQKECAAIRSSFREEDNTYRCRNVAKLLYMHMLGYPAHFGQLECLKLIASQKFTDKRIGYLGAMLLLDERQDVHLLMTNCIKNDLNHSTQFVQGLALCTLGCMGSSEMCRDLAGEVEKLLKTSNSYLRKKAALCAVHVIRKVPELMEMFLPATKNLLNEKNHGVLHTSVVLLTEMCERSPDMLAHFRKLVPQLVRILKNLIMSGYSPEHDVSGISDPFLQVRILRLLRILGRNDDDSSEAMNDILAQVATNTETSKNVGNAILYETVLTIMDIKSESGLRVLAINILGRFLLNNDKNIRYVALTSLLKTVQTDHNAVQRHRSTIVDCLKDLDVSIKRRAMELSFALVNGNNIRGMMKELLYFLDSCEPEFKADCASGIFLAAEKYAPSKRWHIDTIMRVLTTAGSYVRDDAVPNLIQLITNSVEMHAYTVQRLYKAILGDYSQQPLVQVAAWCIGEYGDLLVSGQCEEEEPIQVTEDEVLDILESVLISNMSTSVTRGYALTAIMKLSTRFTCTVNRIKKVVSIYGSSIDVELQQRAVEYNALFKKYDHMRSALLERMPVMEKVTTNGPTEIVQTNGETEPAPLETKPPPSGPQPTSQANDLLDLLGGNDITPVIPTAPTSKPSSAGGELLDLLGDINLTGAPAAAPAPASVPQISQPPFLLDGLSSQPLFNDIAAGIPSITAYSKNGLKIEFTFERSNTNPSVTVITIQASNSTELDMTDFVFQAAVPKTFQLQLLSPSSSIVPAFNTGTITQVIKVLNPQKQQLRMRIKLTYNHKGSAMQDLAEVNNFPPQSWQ
As to the kind of experiment: CETSA-Western blot. The format is cell-based. To be noted: 40-65 ℃; covalent; Cys128; also competes with ITAP in BEAS-2B lysate. For orientation: Immunoblotting shows a protein as a band on a membrane.

Take `C=C(CC(=O)O)C(=O)O` [itaconate]: the CETSA-Western blot entry is given as “Itaconate treatment significantly altered the thermal stability of AP1G1”.
